{"source": "patent US20050075354A1", "about": "“Complexes of E-2-Methoxy-N(3-{4-[3-methyl-4-(6-methyl-pyridin-3-yloxy)-phenylamino]-quinzazolin-6-YL}-allyl)-acetamide, their method of production, and use” (Pfizer Inc, priority 2002, published 2005)", "assay_type_in_all_cases": "physicochemical", "key": {"[1]": {"experiment": "Hygroscopicity (weight gain at relative humidity)", "conditions": "for Hygroscopicity (by weight): at 90% relative humidity; for Hygroscopicity (general statement): description, no conditions stated"}, "[2]": {"experiment": "Chemical stability (general statement)", "conditions": "description, no conditions stated"}, "[3]": {"experiment": "Hygroscopicity in relative humidity chambers", "conditions": "after 16 hours", "experimental": "The material was evaluated for hygroscopicity in relative humidity chambers."}}, "data": [{"molecule": "COCC(=O)NC/C=C/c1ccc2ncnc(Nc3ccc(Oc4ccc(C)nc4)c(C)c3)c2c1.O=C(O)/C=C\\C(=O)O.O=C(O)/C=C\\C(=O)O", "note": "[dimaleate, E-2-Methoxy-N-(3-{4-[3-methyl-4-(6-methyl-pyridin-3-yloxy)-phenylamino]-quinazolin-6-yl}-allyl)-acetamide Dimaleate]", "values": [{"measurement": "Hygroscopicity (by weight)", "setting": "[1]", "result": 0.6, "unit": "%"}, {"measurement": "Hygroscopicity (general statement)", "setting": "[1]", "result": "non-hygroscopic"}, {"measurement": "Chemical stability", "setting": "[2]", "result": "chemically stable"}]}, {"molecule": "CC1(C)C2CCC1(CS(=O)(=O)O)C(=O)C2.COCC(=O)NC/C=C/c1ccc2ncnc(Nc3ccc(Oc4ccc(C)nc4)c(C)c3)c2c1", "note": "[racemic camsylate, racemic E-2-Methoxy-N-(3-{4-[3-methyl-4-(6-methyl-pyridin-3-yloxy)-phenylamino]-quinazolin-6-yl}-allyl)-acetamide camsylate]", "values": [{"measurement": "Hygroscopicity (in words)", "setting": "[1]; camsylate samples, conditions not stated", "result": "hygroscopic to the point of deliquescence"}]}, {"molecule": "CCS(=O)(=O)O.CCS(=O)(=O)O.COCC(=O)NC/C=C/c1ccc2ncnc(Nc3ccc(Oc4ccc(C)nc4)c(C)c3)c2c1", "note": "[diesylate complex, E-2-Methoxy-N-(3-{4-[3-methyl-4-(6-methyl-pyridin-3-yloxy)-phenylamino]-quinazolin-6-yl}-allyl)-acetamide diesylate]", "values": [{"measurement": "Hygroscopicity (by weight)", "setting": "[1]", "result": 45, "unit": "%"}]}, {"molecule": "COCC(=O)NC/C=C/c1ccc2ncnc(Nc3ccc(Oc4ccc(C)nc4)c(C)c3)c2c1.O=S(=O)(O)c1ccccc1", "note": "[monobesylate, E-2-Methoxy-N-(3-{4-[3-methyl-4-(6-methyl-pyridin-3-yloxy)-phenylamino]-quinazolin-6-yl}-allyl)-acetamide monobesylate]", "values": [{"measurement": "Water sorption", "setting": "[3]; 75% RH chamber", "result": "no significant water sorption"}, {"measurement": "Weight increase", "setting": "[3]; 94% RH chamber", "result": 6.7, "unit": "%"}, {"measurement": "Deliquescence", "setting": "[3]; 100% relative humidity chamber", "result": "deliquescence was observed"}]}, {"molecule": "COCC(=O)NC/C=C/c1ccc2ncnc(Nc3ccc(Oc4ccc(C)nc4)c(C)c3)c2c1.O=P(O)(O)O", "note": "[monophosphate, E-2-Methoxy-N-(3{4-[3-methyl-4-(6-methyl-pyridin-3-yloxy)-phenylamino]-quinazolin-6-yl}-allyl)-acetamide Monophosphate]", "values": [{"measurement": "Hygroscopicity (general statement)", "setting": "[1]", "result": "non-hygroscopic"}, {"measurement": "Chemical stability", "setting": "[2]", "result": "chemically stable"}]}, {"molecule": "COCC(=O)NC/C=C/c1ccc2ncnc(Nc3ccc(Oc4ccc(C)nc4)c(C)c3)c2c1.Cl", "note": "[monohydrochloride, E-2-Methoxy-N-(3{4-[3-methyl-4-(6-methyl-pyridin-3-yloxy)-phenylamino]-quinazolin-6-yl}-allyl)-acetamide Monohydrochloride]", "values": [{"measurement": "Hygroscopicity (general statement)", "setting": "[1]", "result": "non-hygroscopic"}, {"measurement": "Chemical stability", "setting": "[2]", "result": "chemically stable"}]}, {"molecule": "COCC(=O)NC/C=C/c1ccc2ncnc(Nc3ccc(Oc4ccc(C)nc4)c(C)c3)c2c1.O=[N+]([O-])O.O=[N+]([O-])O", "note": "[dinitrate, E-2-Methoxy-N-(3-{4-[3-methyl-4-(6-methyl-pyridin-3-yloxy)-phenylamino]-quinazolin-6-yl}-allyl)-acetamide dinitrate]", "values": [{"measurement": "Hygroscopicity (by weight)", "setting": "[1]", "result": "~7", "unit": "%"}]}]}
